Experimental data from patent US20060165827A1, “Anti diarrhoea compositions” (Loders Croklaan USA LLC, priority 2002, published 2006).

Columns and labels:
[1] = test system: growing piglets; test: Growth, food intake and food conversion of weaned piglets on supplemented feed; format: in vivo, pig
Excerpt: (§1) Evaluate the effect of supplementation with shea sterols on growth and post-weaning diarrhoea of growing piglets.
(§2) One day before the start of the experiment the pigs are weighed. The piglets are distributed over the different treatment groups with the aim to establish group equality in weight, sex. Piglets smaller than 5 kg or piglets with physical disturbances are excluded from the study.
(§3) At a mean age of 27 days the pigs are weaned and randomly assigned to the 3 experimental groups and are then treated for 35 days. Pigs are fed ad libitum. The first 14 days post weaning the pigs are fed a prestarter diet. Subsequently, the piglets are changed in a period of 3 days to a starter diet. Throughout the 35 day study period the food is supplemented with either:
(§4) 1. without antimicrobial growth enhancers
(§5) 2. with antimicrobial growth enhancers (AMGB: 40 ppm avilamycine)
(§6) 3. with shea oleine (0.4%)
(§7) The shea oleine contained 8 wt % sterols and pentacyclic terpenes. The shea oleine was obtained by fractionation of the extract from shea nuts into a stearine and oleine fraction, followed by partial bleaching and deodorising.
Piglets were weighed at the start of the experiment, at 14 days and at day 34.

[2] = test system: post-weaning diarrhoea of growing piglets; test: Incidence of post-weaning diarrhoea in weaned piglets on supplemented feed; format: in vivo, pig
Excerpt: as §1, §2, §3, §4, §5, §6, §7

[3] = from weaning till 14 days post weaning
[4] = from weaning till 14 days post weaning, p < 0.001

avilamycine [AMGB]
EW-conversion ([1]; from day 1 till day 34): 1.64 | EW-intake per day ([1]; from day 1 till day 34): 0.57 | food conversion ([1]; from day 1 till day 34): 1.49 | food intake ([1]; from day 1 till day 34): 0.52 kg/day | growth rate ([1]; from day 1 till day 34): 352 g/day | weight ([1]; from day 1 till day 34): 20.9 kg | EW-conversion ([1]; from day 15 till day 34): 1.70 | EW-intake per day ([1]; from day 15 till day 34): 0.79 | food conversion ([1]; from day 15 till day 34): 1.55 | food intake ([1]; from day 15 till day 34): 0.72 kg/day | growth rate ([1]; from day 15 till day 34): 468 g/day | weight ([1]; from day 15 till day 34): 10.5 kg | EW-conversion [1, 3]: 1.43 | food conversion [1, 3]: 1.28 | growth rate [1, 3]: 185 g/day | EW-intake per day [1, 4]: 0.26 | food intake [1, 4]: 0.23 kg/day | weight at weaning ([1]; piglets, at weaning (start of experiment)): 7.7 kg | Incidence of diarrhoea: no diarrhoea ([2]; First week post-weaning): 81.2% | Incidence of diarrhoea: past (paste-like) diarrhoea ([2]; First week post-weaning): 17.6% | Incidence of diarrhoea: watery diarrhoea ([2]; First week post-weaning): 1.2% | Incidence of diarrhoea: past (paste-like) diarrhoea ([2]; Second week post-weaning): 9.5% | Incidence of diarrhoea: watery diarrhoea ([2]; Second week post-weaning): 0.2% | Incidence of diarrhoea: no diarrhoea ([2]; Second week post-weaning, p < 0.1): 90.3% | Incidence of diarrhoea: past (paste-like) diarrhoea ([2]; Third week post-weaning): 9.0% | Incidence of diarrhoea: watery diarrhoea ([2]; Third week post-weaning): 0.5% | Incidence of diarrhoea: no diarrhoea ([2]; Third week post-weaning, p < 0.01): 90.5% | number of animals required treatment ([2]; veterinary treatment during the study): 23
